Assay results published in US20090286829A1, “QUINOLYNYLMETHYLIMIDIZOLES AS THERAPEUTIC AGENTS” (ALLERGAN, INC., priority 2008, published 2009).

What was measured:
Format in all cases: cell-based
Alpha 2B = molecular target: T1, Alpha 2B (Homo sapiens, UniProt P18089); experiment: RSAT assay, alpha 2B receptor; details: for Alpha 2B (IA) intrinsic activity: RSAT, ratio of maximal effect to that of standard agonist brimonidine
T1 construct: expressed in transfected cells; host or cells: NIH-3T3
T1 sequence (P18089 1-450): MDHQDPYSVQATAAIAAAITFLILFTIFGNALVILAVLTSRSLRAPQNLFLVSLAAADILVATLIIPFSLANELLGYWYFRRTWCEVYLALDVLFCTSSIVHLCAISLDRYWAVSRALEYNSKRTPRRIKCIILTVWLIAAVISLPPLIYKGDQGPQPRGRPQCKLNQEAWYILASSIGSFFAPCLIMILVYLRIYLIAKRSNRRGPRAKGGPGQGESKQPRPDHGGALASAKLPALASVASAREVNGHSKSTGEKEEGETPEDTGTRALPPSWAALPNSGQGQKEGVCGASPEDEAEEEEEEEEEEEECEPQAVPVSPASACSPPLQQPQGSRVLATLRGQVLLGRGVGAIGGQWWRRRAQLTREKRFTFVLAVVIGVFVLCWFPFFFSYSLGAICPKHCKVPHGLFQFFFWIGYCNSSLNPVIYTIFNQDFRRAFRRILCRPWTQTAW
Procedure: (§1) The RSAT assay measures a receptor-mediated loss of contact inhibition that results in selective proliferation of receptor-containing cells in a mixed population of confluent cells. The increase in cell number is assessed with an appropriate transfected marker gene such as -galactosidase, the activity of which can be easily measured in a 96-well format. Receptors that activate the G protein, Gq, elicit this response. Alpha2 receptors, which normally couple to Gi, activate the RSAT response when coexpressed with a hybrid Gq protein that has a Gi receptor recognition domain, called Gq/i5.
NIH-3T3 cells are plated at a density of 2×10^6 cells in 15 cm dishes and maintained in Dulbecco's modified Eagle's medium supplemented with 10% calf serum. One day later, cells are cotransfected by calcium phosphate precipitation with mammalian expression plasmids encoding p-SV-1-galactosidase (5-10 μg), receptor (1-2 μg) and G protein (1-2 μg). 40 μg salmon sperm DNA may also be included in the transfection mixture. Fresh media is added on the following day and 1-2 days later, cells are harvested and frozen in 50 assay aliquots. Cells are thawed and 100 μl added to 100 μl aliquots of various concentrations of drugs in triplicate in 96-well dishes. Incubations continue 72-96 hr at 37° C. After washing with phosphate-buffered saline, β-galactosidase enzyme activity is determined by adding 200 μl of the chromogenic substrate (consisting of 3.5 mM o-nitrophenyl-β-D-galactopyranoside and 0.5% nonidet P-40 in phosphate buffered saline), incubating overnight at 30° C. and measuring optical density at 420 nm. The absorbance is a measure of enzyme activity, which depends on cell number and reflects a receptor-mediated cell proliferation. The efficacy or intrinsic activity is calculated as a ratio of the maximal effect of the drug to the maximal effect of a standard full agonist for each receptor subtype. Brimonidine, also called UK14304, the chemical structure of which is shown below, is used as the standard agonist for the alpha2A, alpha2B and alpha2C receptors. The EC50 is the concentration at which the drug effect is half of its maximal effect.
EC50 values are nanomolar. NA stands for “not active” at concentrations less than 10 micromolar. IA stands for “intrinsic activity.”

Alpha 1A = molecular target: T2, Alpha 1A (Homo sapiens, UniProt P35348); experiment: RSAT assay, alpha 1A receptor
T2 construct: expressed in transfected cells; host or cells: NIH-3T3
T2 sequence (P35348 1-466): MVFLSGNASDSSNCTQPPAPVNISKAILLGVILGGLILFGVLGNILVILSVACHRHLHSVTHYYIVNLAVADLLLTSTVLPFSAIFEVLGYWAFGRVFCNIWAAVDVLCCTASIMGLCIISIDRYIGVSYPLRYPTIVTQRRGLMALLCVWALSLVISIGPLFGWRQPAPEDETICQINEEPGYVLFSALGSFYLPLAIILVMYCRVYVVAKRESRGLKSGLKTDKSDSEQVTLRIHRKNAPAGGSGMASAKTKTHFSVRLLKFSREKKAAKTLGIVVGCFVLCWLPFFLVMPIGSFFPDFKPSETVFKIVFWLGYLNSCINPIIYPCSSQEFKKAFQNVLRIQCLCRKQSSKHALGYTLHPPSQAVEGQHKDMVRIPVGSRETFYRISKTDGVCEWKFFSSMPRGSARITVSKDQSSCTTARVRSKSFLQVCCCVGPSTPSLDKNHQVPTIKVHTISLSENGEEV
Procedure: as §1
(§2) NIH-3T3 cells are plated at a density of 2×10^6 cells in 15 cm dishes and maintained in Dulbecco's modified Eagle's medium supplemented with 10% calf serum. […] After washing with phosphate-buffered saline, β-galactosidase enzyme activity is determined by adding 200 μl of the chromogenic substrate (consisting of 3.5 mM o-nitrophenyl-β-D-galactopyranoside and 0.5% nonidet P-40 in phosphate buffered saline), incubating overnight at 30° C. and measuring optical density at 420 nm. The absorbance is a measure of enzyme activity, which depends on cell number and reflects a receptor-mediated cell proliferation. The efficacy or intrinsic activity is calculated as a ratio of the maximal effect of the drug to the maximal effect of a standard full agonist for each receptor subtype. […]

Alpha 2C = molecular target: T3, Alpha 2C (Homo sapiens, UniProt P18825); experiment: RSAT assay, alpha 2C receptor
T3 construct: expressed in transfected cells; host or cells: NIH-3T3
T3 sequence (P18825 1-462): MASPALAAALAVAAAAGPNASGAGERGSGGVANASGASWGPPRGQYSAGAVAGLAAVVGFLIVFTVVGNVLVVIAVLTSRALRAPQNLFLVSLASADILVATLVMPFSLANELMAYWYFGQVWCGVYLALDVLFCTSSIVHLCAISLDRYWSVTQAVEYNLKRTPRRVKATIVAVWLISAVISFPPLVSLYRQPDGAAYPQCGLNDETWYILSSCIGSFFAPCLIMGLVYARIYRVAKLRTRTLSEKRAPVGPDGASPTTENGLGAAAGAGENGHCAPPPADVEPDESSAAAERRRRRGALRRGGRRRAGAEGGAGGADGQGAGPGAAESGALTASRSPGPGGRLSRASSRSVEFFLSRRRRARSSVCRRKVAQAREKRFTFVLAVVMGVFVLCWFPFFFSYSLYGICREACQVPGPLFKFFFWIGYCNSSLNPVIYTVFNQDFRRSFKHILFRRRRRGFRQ
Procedure: as §1, §2

Alpha 2A = molecular target: T4, Alpha 2A (Homo sapiens, UniProt P08913); experiment: RSAT assay, alpha 2A receptor; details: ratio of maximal effect to that of standard agonist brimonidine
T4 construct: expressed in transfected cells; host or cells: NIH-3T3
T4 sequence (P08913 1-465): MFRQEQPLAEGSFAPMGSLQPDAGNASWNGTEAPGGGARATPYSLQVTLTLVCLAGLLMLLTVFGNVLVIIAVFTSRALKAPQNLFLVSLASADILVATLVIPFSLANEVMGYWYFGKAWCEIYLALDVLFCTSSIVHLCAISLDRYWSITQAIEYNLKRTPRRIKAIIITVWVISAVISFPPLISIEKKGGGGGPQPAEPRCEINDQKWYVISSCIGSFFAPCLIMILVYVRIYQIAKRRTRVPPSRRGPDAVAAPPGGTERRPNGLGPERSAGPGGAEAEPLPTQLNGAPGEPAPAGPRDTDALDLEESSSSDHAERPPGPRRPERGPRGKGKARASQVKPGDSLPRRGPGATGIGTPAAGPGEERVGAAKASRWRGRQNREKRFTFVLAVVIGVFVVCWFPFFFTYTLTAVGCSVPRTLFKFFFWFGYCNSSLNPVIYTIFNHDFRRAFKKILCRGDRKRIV
Procedure: as §1, §2

SMILES	EC50 (Alpha 2B) [nM]	Alpha 2B (IA) intrinsic activity (Alpha 2B)	EC50 (Alpha 1A) [nM]	Alpha 1A (IA) intrinsic activity (Alpha 1A; RSAT, ratio of maximal effect of drug to maximal effect of standard full agonist)	EC50 (Alpha 2C) [nM]	Alpha 2C (IA) intrinsic activity (Alpha 2C; RSAT, ratio of maximal effect to that of standard agonist brimonidine)	Alpha 2A (IA) intrinsic activity (Alpha 2A)
Cc1[nH]cnc1Cc1cccc2cccnc12 [8-((5-methyl-1H-imidazol-4-yl)methyl)quinoline]	117	0.70	1730	0.75	–	–	–
Cc1[nH]cnc1C(C)c1cccc2cccnc12 (stereo not drawn) [8-(1-(5-methyl-1H-imidazol-4-yl)ethyl)quinoline]	30	0.70	–	–	3110	0.32	–
Cc1[nH]cnc1Cc1ccc2cccnc2c1C [8-methyl-7-((5-methyl-1H-imidazol-4-yl)methyl)quinoline]	–	–	–	–	–	–	0.43
